The test system of data set [1] is Pf3D7. Briefly: microbe, parasite or virus in culture. Format: cell-based. To be noted: Plasmodium falciparum, 3D7, read-out: Pf3D7 IC50.
Data set [2] deals with PfW2. The data set is described as follows: microbe, parasite or virus in culture. Format: cell-based, Plasmodium falciparum. The following applies: read-out: PfW2 IC50.
Data set [3] can be described thus: Cytotoxicity by MTT assay, Vero cells. In kind it is cell-based. The following applies: African green monkey, Vero cells. A general note: Tetrazolium assays rely on reduction of a dye to a coloured formazan, in cell work by metabolically active cells.
In the next data set the test system is Vero cell. The data set is described as follows: Cytotoxicity by MTT assay, Vero cells. Format: cell-based. To be noted: for Selectivity index (SI) with Pf3D7 strain, Vero cell: cytotoxicity IC50 / Pf3D7 IC50; for Selectivity index (SI) with PfW2 strain, Vero cell: cytotoxicity IC50 / PfW2 IC50.
A short description of data set [4]: Cytotoxicity by MTT assay, lung cancer A5489 cell line. Format: cell-based, human. To be noted: human, lung cancer A5489 cell line.
Data set [5] deals with lung cancer A5489 cell line. The data set is described as above. The following applies: for Selectivity index (SI) with Pf3D7 strain, A5489: cytotoxicity IC50 / Pf3D7 IC50; for Selectivity index (SI) with PfW2 strain, A5489: cytotoxicity IC50 / PfW2 IC50. In kind it is cell-based, human.
In data set [6] the test system is early ring stage 3D7 parasite of P. falciparum. Briefly: Impact on parasite growth and morphology. Format: cell-based, Plasmodium falciparum. The following applies: ring-stage parasites, 3 × IC50 concentration, smears after 24 and 48 hours.
The next data set has as its target T1, Falcipain-2 (Plasmodium falciparum, UniProt Q8I6U4).
T1 sequence (Q8I6U4 244-484): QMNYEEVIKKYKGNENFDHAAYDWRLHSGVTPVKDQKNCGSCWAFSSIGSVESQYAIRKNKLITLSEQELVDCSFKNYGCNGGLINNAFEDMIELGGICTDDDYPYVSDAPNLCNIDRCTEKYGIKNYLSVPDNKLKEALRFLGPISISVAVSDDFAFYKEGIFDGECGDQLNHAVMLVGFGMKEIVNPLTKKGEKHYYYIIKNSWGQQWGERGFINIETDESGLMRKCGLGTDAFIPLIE
Briefly: biochemical. To be noted: Falcipain-2 (IC50 μM), mean of triplicate.

Another data set addresses T2, Falcipain-3 (Plasmodium falciparum, UniProt Q8IIL0).
T2 sequence (Q8IIL0 243-492): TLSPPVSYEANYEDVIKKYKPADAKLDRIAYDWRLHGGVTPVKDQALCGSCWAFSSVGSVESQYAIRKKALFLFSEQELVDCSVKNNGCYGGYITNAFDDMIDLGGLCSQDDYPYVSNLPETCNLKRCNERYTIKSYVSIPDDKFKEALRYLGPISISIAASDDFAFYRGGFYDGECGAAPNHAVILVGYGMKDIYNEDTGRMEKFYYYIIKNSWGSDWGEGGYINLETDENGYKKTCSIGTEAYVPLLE
Briefly: biochemical.

Data set [7] concerns Pf3D7. To be noted: read-out: Pf3D7 IC50; reference drugs, reported earlier; cited from earlier work.
The subject of data set [8] is PfW2. To be noted: read-out: PfW2 IC50; reference drugs, reported earlier; cited from earlier work.

Molecules are shown by their SMILES. Where “and” joins values, the source holds several entries; their conditions need not be identical. Identical values can stand only once. Like-named read-outs stand apart in the source and are kept apart here. Some results are limits rather than exact numbers.

As to `O=C1CC2(CCN(c3cc(N4CCN(S(=O)(=O)N5CCOCC5)CC4)ncn3)CC2)Oc2ccccc21` [SZ13, 1′-(6-(4-(Morpholinosulfonyl)piperazin-1-yl)pyrimidin-4-yl) spiro[chromane-2,4′-piperidin]-4-one], the IC50 was 22.2 ± 0.36 µM with Pf3D7 [1] and > 15 µM with PfW2 [2] (Plasmodium falciparum).
In the case of `O=C1CC2(CCN(c3cc(N4CCN(S(=O)(=O)c5cccc(C(F)(F)F)c5)CC4)ncn3)CC2)Oc2ccccc21` [SZ14, 1′-(6-(4-((3-(Trifluoromethyl)phenyl)sulfonyl)piperazin-1-yl)pyrimidin-4-yl)spiro [chromane-2,4′-piperidin]-4-one], the IC50 with Pf3D7 [1] turned out to be 2.84 ± 0.21 µM; in the data set with PfW2 [2] (Plasmodium falciparum), 2.84 µM; with PfW2 [2] it was 3.12 ± 0.14 µM; at Falcipain-2 it was 4.1 ± 1.1 µM; at Falcipain-3, 5.4 ± 0.7 µM. In addition, the 50% inhibitory concentration (IC50) at 72 h in data set [3] was > 1000 µM. Moreover, the “Selectivity index (SI) with Pf3D7 strain, Vero cell” value with Vero cell was 352.11. Besides, in the data set on Vero cell, the “Selectivity index (SI) with PfW2 strain, Vero cell” value is reported as 320.51. Moreover, in data set [4], the midpoint of inhibition, the IC50 at 24 h, lay at 66.2 ± 2.14 µM. In addition, in data set [5], the “Selectivity index (SI) with Pf3D7 strain, A5489” value worked out at 23.31. The “Selectivity index (SI) with PfW2 strain, A5489” value in data set [5] is 21.22. Also, the “Effect on erythrocytic growth of the parasite” value (“Effect on erythrocytic growth” below) in [6] is recorded as “stopped at the early trophozoite stage”.
On to `O=C1CC2(CCN(c3cc(N4CCN(S(=O)(=O)c5ccc(F)cc5)CC4)ncn3)CC2)Oc2ccccc21` [SZ9, 1′-(6-(4-((4-Fluorophenyl)sulfonyl)piperazin-1-yl)pyrimidin-4-yl)spiro[chromane-2,4′-piperidin]-4-one], for which the 50% inhibitory concentration (IC50) in the data set with Pf3D7 [1] is 3.22 ± 0.07 µM; in the data set on PfW2 [2] (Plasmodium falciparum), 3.89 ± 0.23 µM; at Falcipain-2 it was 5.4 µM and 4.9 µM; against Falcipain-3, 6.3 ± 1.2 µM. Besides, the 50% inhibitory concentration (IC50) at 72 h in [3] is > 1000 µM. Further, the “Selectivity index (SI) with Pf3D7 strain, Vero cell” value in the data set with Vero cell was determined as 310.55. Besides, the “Selectivity index (SI) with PfW2 strain, Vero cell” value in the data set with Vero cell turned out to be 257.06. For the same compound, the half-maximal inhibitory concentration (IC50) at 24 h in [4] was 78.5 ± 2.76 µM. Also, in data set [5], the “Selectivity index (SI) with Pf3D7 strain, A5489” value is 24.36. Besides, the “Selectivity index (SI) with PfW2 strain, A5489” value in data set [5] turned out to be 20.17. Also, the “Effect on erythrocytic growth” value in [6] is “stopped at the early trophozoite stage”.
Consider `N#Cc1ccc(S(=O)(=O)N2CCN(c3cc(N4CCC5(CC4)CC(=O)c4ccccc4O5)ncn3)CC2)cc1` [SZ4, 4-((4-(6-(4-Oxospiro[chromane-2,4′-piperidin]-1′-yl)pyrimidin-4-yl)piperazin-1-yl)sulfonyl)benzonitrile], for which the half-inhibitory concentration (IC50) with Pf3D7 [1] amounted to 6.33 ± 0.29 µM; with PfW2 [2] (Plasmodium falciparum), 14.4 ± 0.16 µM.
Take `O=C1CC2(CCN(c3cc(N4CCN(S(=O)(=O)c5ccc6ccccc6c5)CC4)ncn3)CC2)Oc2ccccc21` [SZ3, 1′-(6-(4-(Naphthalen-2-ylsulfonyl)piperazin-1-yl)pyrimidin-4-yl)spiro[chromane-2,4′-piperidin]-4-one]: the values for the half-maximal inhibitory concentration (IC50) in the data set on Pf3D7 [1] and in the data set on PfW2 [2] (Plasmodium falciparum) were 25.2 ± 0.35 µM and > 15 µM, respectively.
Consider `O=C1CC2(CCN(c3cc(N4CCN(S(=O)(=O)c5ccc([N+](=O)[O-])cc5)CC4)ncn3)CC2)Oc2ccccc21` [SZ1, 1′-(6-(4-((4-Nitrophenyl)sulfonyl)piperazin-1-yl)pyrimidin-4-yl)spiro[chromane-2,4′-piperidin]-4-one], for which the values for the concentration for half-maximal inhibition (IC50) with Pf3D7 [1], with PfW2 [2] (Plasmodium falciparum) and with PfW2 [2] were 14.8 ± 0.24 µM, > 14 µM and > 15 µM, respectively.
For `O=C1CC2(CCN(c3cc(N4CCN(S(=O)(=O)c5cc(F)cc(F)c5)CC4)ncn3)CC2)Oc2ccccc21` [SZ10, 1′-(6-(4-((3,5-Difluorophenyl)sulfonyl)piperazin-1-yl)pyrimidin-4-yl) spiro [chromane-2,4′-piperidin]-4-one], the IC50 with Pf3D7 [1] was 4.55 ± 0.34 µM; with PfW2 [2] (Plasmodium falciparum) it was 6.67 ± 0.16 µM; against Falcipain-2, 7.2 ± 1.8 µM; at Falcipain-3, 8.8 ± 1.5 µM. Also, the IC50 at 72 h in data set [3] is > 1000 µM. Moreover, the “Selectivity index (SI) with Pf3D7 strain, Vero cell” value with Vero cell is 219.79. For the same compound, the “Selectivity index (SI) with PfW2 strain, Vero cell” value with Vero cell stood at 149.92. Half-maximal inhibition in data set [4] (IC50 at 24 h) required 122 ± 3.39 µM. In addition, in data set [5], the “Selectivity index (SI) with Pf3D7 strain, A5489” value was 26.91. In addition, in data set [5], the “Selectivity index (SI) with PfW2 strain, A5489” value is listed as 18.35. In [6], the “Effect on erythrocytic growth” value is recorded as “stopped at the early trophozoite stage”.
Consider `O=C1CC2(CCN(c3cc(N4CCN(S(=O)(=O)c5ccccc5[N+](=O)[O-])CC4)ncn3)CC2)Oc2ccccc21` [SZ2, 1′-(6-(4-((2-Nitrophenyl)sulfonyl)piperazin-1-yl)pyrimidin-4-yl)spiro [chromane-2,4′-piperidin]-4-one], for which the results for the IC50 in the data set with Pf3D7 [1], with PfW2 [2] (Plasmodium falciparum) and in the data set on PfW2 [2] were 18.1 ± 0.43 µM, > 14 µM and > 15 µM, respectively.
For `Cc1noc(C)c1S(=O)(=O)N1CCN(c2cc(N3CCC4(CC3)CC(=O)c3ccccc3O4)ncn2)CC1` [SZ12, 1′-(6-(4-((3,5-Dimethylisoxazol-4-yl)sulfonyl)piperazin-1-yl)pyrimidin-4-yl) spiro[chromane-2,4′-piperidin]-4-one], the 50% inhibitory concentration (IC50) was 8.46 ± 0.28 µM in the data set on Pf3D7 [1] and > 15 µM in the data set on PfW2 [2] (Plasmodium falciparum).
`O=C1CC2(CCN(c3cc(N4CCN(S(=O)(=O)c5ccccc5F)CC4)ncn3)CC2)Oc2ccccc21` [SZ8, 1′-(6-(4-((2-Fluorophenyl)sulfonyl)piperazin-1-yl)pyrimidin-4-yl)spiro[chromane-2,4′-piperidin]-4-one]: the results for the half-maximal inhibitory concentration (IC50) with Pf3D7 [1] and in the data set on PfW2 [2] (Plasmodium falciparum) were 5.61 ± 0.42 µM and 8.12 ± 0.37 µM, respectively.
As to `O=C1CC2(CCN(c3cc(N4CCN(S(=O)(=O)c5cccnc5)CC4)ncn3)CC2)Oc2ccccc21` [SZ7, 1′-(6-(4-(Pyridin-3-ylsulfonyl)piperazin-1-yl)pyrimidin-4-yl)spiro[chromane-2,4′-piperidin]-4-one], the IC50 in the data set with Pf3D7 [1] amounted to 7.97 ± 0.33 µM; with PfW2 [2] (Plasmodium falciparum), 5.64 ± 0.18 µM.
On to `CCN(CC)CCCC(C)Nc1ccnc2cc(Cl)ccc12` (stereo not drawn) [CQ, Chloroquine], for which the half-maximal inhibitory concentration (IC50) with Pf3D7 [7] was 0.018 ± 0.002 µM; with PfW2 [8], 0.051 ± 0.001 µM.
In the case of `CCc1nc(N)nc(N)c1-c1ccc(Cl)cc1` [PYR, pyrimethamine], the IC50 in the data set on Pf3D7 [7] was 0.015 ± 0.0002 µM; with PfW2 [8], 129 ± 11.3 µM.
As for `O=C1CC2(CCN(c3cc(N4CCN(S(=O)(=O)c5cccs5)CC4)ncn3)CC2)Oc2ccccc21` [SZ5, 1′-(6-(4-(Thiophen-2-ylsulfonyl)piperazin-1-yl)pyrimidin-4-yl) spiro[chromane-2,4′-piperidin]-4-one], the IC50 worked out at 7.45 ± 0.37 µM with Pf3D7 [1] and 13.3 ± 0.19 µM in the data set with PfW2 [2] (Plasmodium falciparum).
As for `O=C1CC2(CCN(c3cc(N4CCN(S(=O)(=O)c5ccc(F)c(F)c5)CC4)ncn3)CC2)Oc2ccccc21` [SZ11, 1′-(6-(4-((3,4-Difluorophenyl)sulfonyl)piperazin-1-yl)pyrimidin-4-yl)spiro [chromane-2,4′-piperidin]-4-one], the IC50 in the data set with Pf3D7 [1] was 3.92 ± 0.25 µM; with PfW2 [2] (Plasmodium falciparum) it was 5.58 ± 0.19 µM; at Falcipain-2 it was 6.5 ± 1.6 µM; at Falcipain-3, 8 ± 1.4 µM. Further, the IC50 at 72 h in data set [3] is > 1000 µM. Besides, in the data set with Vero cell, the “Selectivity index (SI) with Pf3D7 strain, Vero cell” value is reported as 255.10. Further, the “Selectivity index (SI) with PfW2 strain, Vero cell” value with Vero cell is on record as 179.21. The same compound came in with a half-maximal inhibitory concentration (IC50) at 24 h in [4] of 94.2 ± 2.97 µM. Besides, the “Selectivity index (SI) with Pf3D7 strain, A5489” value in data set [5] came to 24.01. For the same compound, the “Selectivity index (SI) with PfW2 strain, A5489” value in [5] was 16.87. The “Effect on erythrocytic growth” value in data set [6] is listed as “stopped at the early trophozoite stage”.

As usually defined, the IC50 is the concentration that gives 50% inhibition.

These data come from article PMC11304049 (RSC Advances, 2024).
